Test results published in PubChem BioAssay AID602133 (Sanford-Burnham Center for Chemical Genomics, 2011).
Active and inactive are the calls of the source. How the calls were made is not given here.

Target: glucose-6-phosphate dehydrogenase-6-phosphogluconolactonase (Plasmodium falciparum 3D7)
Experiment: inhibition of P. falciparum G6PD rate – biochemical, kinetic direct NADPH detection, set 2, orthogonal assay for PfG6PD antimalarial inhibitor project, SAR follow-up (AID 602133)
Conditions: recombinant PfG6PD

| Structure (SMILES) | IC50 |
| --- | --- |
| NC1CCN(C(=O)c2ccc3c(c2)NC(=O)/C(=C/c2ccccc2F)S3)C1 (stereo not drawn) | 35 µM |
| NCCNC(=O)c1ccc2c(c1)NC(=O)c1ccccc1S2 | > 80 µM (inactive) |
| CN(C)c1ccccc1CNC(=O)c1ccc2c(c1)NC(=O)/C(=C/c1ccccc1F)S2 | 67.8 µM |
| CCN(CC)CCCC(C)Nc1ccnc2cc(Cl)ccc12 (stereo not drawn) | 43 µM |
| CCN1CCC[C@H]1CNC(=O)c1ccc2c(c1)NC(=O)/C(=C/c1ccccc1F)S2 | 4.65 µM |
| CCN1CCC[C@@H]1CNC(=O)c1ccc2c(c1)NC(=O)c1ccccc1S2 | 4.84 µM |
| CCN(CC)CCNC(=O)c1ccc2c(c1)NC(=O)/C(=C/c1ccccc1F)S2 | 4.75 µM |
| CCN1CCCC1CNC(=O)c1ccc2c(c1)NC(=O)C(Cc1ccccc1F)S2 (stereo not drawn) | > 80 µM (inactive) |
| CC(C)(C)OC(=O)N1CCCC1CNC(=O)c1ccc2c(c1)NC(=O)/C(=C/c1ccccc1F)S2 (stereo not drawn) | 24.4 µM |

Now from value to molecule:

| IC50 | Structure (SMILES) |
| --- | --- |
| 46.4 µM | CCN1CCC[C@H]1CNC(=O)c1ccc2c(c1)NC(=O)c1ccccc1S2 |
| > 80 µM (inactive) | NC1CCN(C(=O)c2ccc3c(c2)NC(=O)c2ccccc2S3)C1 (stereo not drawn) |
| 1.94 µM | CCN1CCC[C@@H]1CNC(=O)c1ccc2c(c1)NC(=O)/C(=C/c1ccccc1F)S2 |
| 2.06 µM | CCN1CCCC1CNC(=O)c1ccc2c(c1)NC(=O)/C(=C/c1ccc(F)cc1)S2 (stereo not drawn) |
| 18.3 µM | O=C(NCCN1CCCCC1)c1ccc2c(c1)NC(=O)c1ccccc1S2 |
| 2.88 µM | CCN1CCCC1CNC(=O)c1ccc2c(c1)NC(=O)/C(=C/c1ccc3ccccc3c1)S2 (stereo not drawn) |
| > 80 µM (inactive) | O=C(NCCN1CCOCC1)c1ccc2c(c1)NC(=O)c1ccccc1S2 |
| 13.3 µM | CCC(C)N(CCNC(=O)c1ccc2c(c1)NC(=O)c1ccccc1S2)C1CCCCC1 (stereo not drawn) |
| 9.97 µM | CCC(C)N1CCCC1CNC(=O)c1ccc2c(c1)NC(=O)c1ccccc1S2 (stereo not drawn) |
